In ChEMBL document CHEMBL1201862, “PubChem BioAssay data set” (2004):
Activity calls are given as the source filed them.

Columns and labels:
[1] = biological target: Tyrosine-protein kinase SYK (Homo sapiens, UniProt P43405); type: functional
[2] = biological target: Proto-oncogene tyrosine-protein kinase Src (Homo sapiens, UniProt P12931); type: functional;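 note: SRC entry within a kinome-wide kinase profiling panel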
[3] = biological target: Mitogen-activated protein kinase 13 (Homo sapiens, UniProt O15264); type: functional
Mitogen-activated protein kinase 13, sequence (O15264 whole entry): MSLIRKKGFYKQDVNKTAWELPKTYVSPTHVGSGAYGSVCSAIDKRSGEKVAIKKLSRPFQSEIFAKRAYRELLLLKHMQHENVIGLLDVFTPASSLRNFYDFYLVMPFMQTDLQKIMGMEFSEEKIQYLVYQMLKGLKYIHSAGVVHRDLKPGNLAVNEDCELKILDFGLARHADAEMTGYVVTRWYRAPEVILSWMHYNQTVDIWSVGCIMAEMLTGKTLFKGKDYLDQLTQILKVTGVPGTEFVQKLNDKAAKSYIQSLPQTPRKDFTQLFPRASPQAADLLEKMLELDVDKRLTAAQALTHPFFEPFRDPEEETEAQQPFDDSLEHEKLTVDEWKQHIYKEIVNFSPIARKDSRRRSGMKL

[4] = THP-1 cell cytotoxicity, cytotoxicity control, set 4 (AID 504911); type: functional; conditions: Mycobacterium tuberculosis
[5] = biological target: Latent membrane protein 1 (Human herpesvirus 4 (strain B95-8), UniProt P03230); test: TES1-eGFP NF-kB reporter inhibition versus Tet-On dsRED, dose response, selectivity assay for LMP1 NF-kB inhibitor project, imaging, HEK293T, dual-color eGFP/dsRED, cherry-picks (AID 588398); type: functional, cell-based
Latent membrane protein 1, sequence (P03230 whole entry): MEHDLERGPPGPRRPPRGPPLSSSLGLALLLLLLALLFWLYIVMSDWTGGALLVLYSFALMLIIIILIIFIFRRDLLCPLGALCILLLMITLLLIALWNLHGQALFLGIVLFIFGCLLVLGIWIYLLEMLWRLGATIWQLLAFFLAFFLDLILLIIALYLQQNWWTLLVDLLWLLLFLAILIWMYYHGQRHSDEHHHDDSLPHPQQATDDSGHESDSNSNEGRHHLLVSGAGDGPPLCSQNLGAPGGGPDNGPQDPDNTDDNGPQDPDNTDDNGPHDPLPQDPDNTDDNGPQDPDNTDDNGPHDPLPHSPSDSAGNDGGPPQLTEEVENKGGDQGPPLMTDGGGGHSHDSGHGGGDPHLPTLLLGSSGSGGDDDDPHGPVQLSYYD

[6] = cytotoxicity in KRAS-transformed pancreatic duct cells, primary screen, cell-based, fluorescence, HTS (AID 431); type: functional; conditions: Homo sapiens;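 note: cell line used: HPDE-C7K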
[7] = biological target: FAD-linked sulfhydryl oxidase ALR (Homo sapiens, UniProt P55789); test: inhibitors of human ALR sulfhydryl oxidase, dose response, biochemical, H2O2 detection, luminescence, cherry-pick (AID 493248)
FAD-linked sulfhydryl oxidase ALR, sequence (P55789 whole entry): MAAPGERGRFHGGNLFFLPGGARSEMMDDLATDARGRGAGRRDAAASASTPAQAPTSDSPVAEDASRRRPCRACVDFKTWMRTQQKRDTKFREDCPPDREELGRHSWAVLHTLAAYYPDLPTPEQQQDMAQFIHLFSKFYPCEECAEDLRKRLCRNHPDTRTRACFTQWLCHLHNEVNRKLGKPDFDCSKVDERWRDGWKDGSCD

HT-1080 = test: cytotoxicity in HT1080 fibrosarcoma cells, cell-based, fluorescence readout (AID 620); type: functional; conditions: Homo sapiens
[8] = growth suppression of beta-catenin-knockout colon cells, dose response, cell-based, HCT116, human colon tumor (AID 1045); type: functional;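 note: HCT116 colon tumor cells with beta catenin knocked out; cells exposed to compound for 60 hours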
[9] = biological target: Luciferin 4-monooxygenase (Photinus pyralis, UniProt P08659); test: Counter Screen for Luciferase-based Assay Positives. [Related pubchem assays: 620, 618, 411 ]
[10] = growth suppression of PTEN-null colon cells, dose response, cell-based, HCT116 PTEN knockout (AID 1047); type: functional;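 note: HCT116 colon tumor cells with PTEN knocked out; cells exposed to compound for 60 hours before readout; potency for loss of cell viability measured by luminescence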
[11] = biological target: Glucose-6-phosphate 1-dehydrogenase (Homo sapiens, UniProt P11413); test: human G6PD enzyme inhibitors, dose response, selectivity assay for P. falciparum G6PD inhibitor project, biochemical, fluorescence (AID 504792); type: functional
Glucose-6-phosphate 1-dehydrogenase, sequence (P11413 whole entry): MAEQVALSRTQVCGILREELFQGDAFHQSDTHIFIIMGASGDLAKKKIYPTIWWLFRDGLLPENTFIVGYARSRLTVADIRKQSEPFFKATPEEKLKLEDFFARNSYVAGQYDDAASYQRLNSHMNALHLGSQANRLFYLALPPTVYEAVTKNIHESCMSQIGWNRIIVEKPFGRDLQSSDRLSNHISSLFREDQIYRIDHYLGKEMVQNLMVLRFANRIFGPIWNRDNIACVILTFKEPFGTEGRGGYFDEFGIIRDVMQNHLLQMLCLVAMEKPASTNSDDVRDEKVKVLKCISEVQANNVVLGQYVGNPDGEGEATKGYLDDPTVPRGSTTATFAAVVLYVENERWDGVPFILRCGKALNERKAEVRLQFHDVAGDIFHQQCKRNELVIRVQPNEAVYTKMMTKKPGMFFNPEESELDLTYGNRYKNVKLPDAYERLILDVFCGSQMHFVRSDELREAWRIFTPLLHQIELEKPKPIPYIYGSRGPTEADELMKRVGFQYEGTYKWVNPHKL

[12] = cytotoxicity in HEK-293T cells, dose response, cytotoxicity control for BCR NF-kB inhibitor project, luminescence, B-cell screen hits (AID 489021); type: functional, cell-based;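 note: HEK-293T cells carrying an NF-kB luciferase reporter; cells exposed to compound for about 14 hours before viability readout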
[13] = biological target: Hepatocyte nuclear factor 4-alpha (Homo sapiens, UniProt P41235); type: functional, cell-based;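 note: biochemical luminescence-based dose-response counterscreen measuring inhibition of HNF4 dimerization, run alongside a screen for blockers of ABHD5–perilipin-5 interaction; split luciferase complementation of HNF4 fusion proteins in cell lysate measuring dimerization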
Hepatocyte nuclear factor 4-alpha, sequence (P41235 whole entry, the tested form may be a part): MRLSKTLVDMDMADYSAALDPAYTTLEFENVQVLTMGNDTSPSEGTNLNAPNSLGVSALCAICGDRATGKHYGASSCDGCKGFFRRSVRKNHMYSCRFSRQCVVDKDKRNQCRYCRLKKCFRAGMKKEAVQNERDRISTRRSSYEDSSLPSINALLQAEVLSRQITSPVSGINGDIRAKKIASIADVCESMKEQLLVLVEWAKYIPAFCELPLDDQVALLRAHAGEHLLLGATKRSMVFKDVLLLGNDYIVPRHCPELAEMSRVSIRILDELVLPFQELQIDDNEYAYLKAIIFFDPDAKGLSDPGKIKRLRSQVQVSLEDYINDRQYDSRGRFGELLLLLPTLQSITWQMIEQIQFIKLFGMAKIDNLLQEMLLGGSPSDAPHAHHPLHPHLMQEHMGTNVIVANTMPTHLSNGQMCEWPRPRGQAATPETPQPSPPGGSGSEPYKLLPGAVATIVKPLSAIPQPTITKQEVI

[14] = cytotoxicity toward NIH3T3 fibroblasts, dose response, counter-screen, cell-based, ATP luminescence, mouse fibroblasts (AID 2010); type: functional;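 note: cells exposed to compound for about 90 hours before reading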
[15] = inhibitors of intracellular T. cruzi replication, confirmation, NIH3T3 host cells, beta-gal luminescence (AID 2044); type: functional, cell-based;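 note: intracellular parasites grown in NIH/3T3 mouse fibroblasts as host cells; luminescent beta-galactosidase reporter signal from transgenic T. cruzi replicating inside host cells; inhibitors lower the luminescence signal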
[16] = cytotoxicity in HPDE-C7 cells, cell-based, fluorescence, HTS (AID 430); type: functional; conditions: Homo sapiens
[17] = biological target: T1, Neuropeptides B/W receptor type 1 (Homo sapiens, UniProt P48145); test: GPR7 antagonist potency, late-stage follow-up, cell-based, fluorescence, dose response, set 5 (AID 588566); type: functional
T1 sequence (P48145 whole entry): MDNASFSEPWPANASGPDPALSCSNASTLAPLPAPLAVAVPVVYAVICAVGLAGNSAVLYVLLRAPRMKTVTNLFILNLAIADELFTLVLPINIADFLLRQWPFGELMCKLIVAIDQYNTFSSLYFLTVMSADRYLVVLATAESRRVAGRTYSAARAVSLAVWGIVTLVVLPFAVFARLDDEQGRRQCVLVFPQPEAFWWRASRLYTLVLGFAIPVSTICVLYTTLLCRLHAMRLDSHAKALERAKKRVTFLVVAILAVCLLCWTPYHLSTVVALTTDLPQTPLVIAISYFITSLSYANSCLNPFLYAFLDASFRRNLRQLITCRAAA

[18] = biological target: Melanin-concentrating hormone receptor 1 (Homo sapiens, UniProt Q99705); test: Late-stage fluorescence-based counterscreen for antagonists of the G-protein coupled receptor 7 (GPR7): cell-based dose response assay to identify antagonists of the melanin-concentrating hormone receptor 1 (MCHR1) Set 5.; type: functional
Melanin-concentrating hormone receptor 1, sequence (Q99705 whole entry): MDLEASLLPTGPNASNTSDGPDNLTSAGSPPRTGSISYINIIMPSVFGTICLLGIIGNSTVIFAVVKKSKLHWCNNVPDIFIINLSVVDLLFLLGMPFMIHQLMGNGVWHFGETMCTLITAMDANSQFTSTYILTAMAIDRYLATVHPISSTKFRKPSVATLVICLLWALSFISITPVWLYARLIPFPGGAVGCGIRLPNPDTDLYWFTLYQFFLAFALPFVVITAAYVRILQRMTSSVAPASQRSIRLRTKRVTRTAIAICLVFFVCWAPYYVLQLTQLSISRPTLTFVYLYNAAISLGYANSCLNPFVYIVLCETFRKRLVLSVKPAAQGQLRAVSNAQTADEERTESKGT

[19] = biological target: Serine/threonine-protein kinase pim-1 (Homo sapiens, UniProt P11309); type: functional
Serine/threonine-protein kinase pim-1, sequence (P11309 whole entry): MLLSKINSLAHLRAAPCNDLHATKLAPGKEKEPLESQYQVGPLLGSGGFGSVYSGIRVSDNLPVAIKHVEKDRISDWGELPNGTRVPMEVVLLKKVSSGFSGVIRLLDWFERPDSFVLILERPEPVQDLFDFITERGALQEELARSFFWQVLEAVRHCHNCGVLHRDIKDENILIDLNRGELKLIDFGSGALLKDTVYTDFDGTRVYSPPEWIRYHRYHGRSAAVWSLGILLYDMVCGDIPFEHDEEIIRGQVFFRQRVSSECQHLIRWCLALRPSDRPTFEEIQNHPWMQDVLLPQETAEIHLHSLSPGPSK

[20] = biological target: cAMP-dependent protein kinase catalytic subunit alpha (Homo sapiens, UniProt P17612); type: functional
[21] = biological target: Mitogen-activated protein kinase kinase kinase kinase 4 (Homo sapiens, UniProt O95819); type: functional
[22] = biological target: Cell division cycle 7-related protein kinase (Homo sapiens, UniProt O00311); type: functional;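 note: value obtained from a kinome-wide kinase panel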
Cell division cycle 7-related protein kinase, sequence (O00311 whole entry): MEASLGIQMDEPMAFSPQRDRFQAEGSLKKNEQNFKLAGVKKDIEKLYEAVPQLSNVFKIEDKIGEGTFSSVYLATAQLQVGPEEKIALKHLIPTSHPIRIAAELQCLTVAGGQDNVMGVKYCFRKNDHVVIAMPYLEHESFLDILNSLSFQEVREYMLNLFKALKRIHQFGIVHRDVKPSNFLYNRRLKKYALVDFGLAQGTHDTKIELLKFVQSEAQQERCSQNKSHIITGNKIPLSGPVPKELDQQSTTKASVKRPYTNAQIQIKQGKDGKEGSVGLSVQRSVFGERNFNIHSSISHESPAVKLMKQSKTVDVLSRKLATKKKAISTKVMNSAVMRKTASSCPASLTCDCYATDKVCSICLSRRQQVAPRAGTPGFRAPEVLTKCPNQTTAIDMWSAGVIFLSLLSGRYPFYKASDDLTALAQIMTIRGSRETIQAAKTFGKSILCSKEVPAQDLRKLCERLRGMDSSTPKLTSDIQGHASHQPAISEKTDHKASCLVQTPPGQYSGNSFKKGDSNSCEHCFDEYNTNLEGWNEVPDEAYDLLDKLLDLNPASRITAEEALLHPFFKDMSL

[23] = biological target: Glycogen synthase kinase-3 beta (Homo sapiens, UniProt P49841); type: functional;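 note: value comes from a broad kinome profiling panel, with GSK3B as the panel member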
Glycogen synthase kinase-3 beta, sequence (P49841 whole entry): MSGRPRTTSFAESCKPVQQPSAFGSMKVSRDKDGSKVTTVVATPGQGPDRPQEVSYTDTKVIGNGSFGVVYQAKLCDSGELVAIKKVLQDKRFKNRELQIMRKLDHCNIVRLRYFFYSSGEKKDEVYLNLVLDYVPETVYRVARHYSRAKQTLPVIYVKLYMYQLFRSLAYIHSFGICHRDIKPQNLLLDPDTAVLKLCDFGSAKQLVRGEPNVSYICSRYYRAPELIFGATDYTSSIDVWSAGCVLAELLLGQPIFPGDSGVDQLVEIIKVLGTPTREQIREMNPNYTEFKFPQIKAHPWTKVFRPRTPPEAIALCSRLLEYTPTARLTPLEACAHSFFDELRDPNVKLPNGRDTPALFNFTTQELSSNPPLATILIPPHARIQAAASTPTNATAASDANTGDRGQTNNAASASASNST

[24] = biological target: Interleukin-1 receptor-associated kinase 4 (Homo sapiens, UniProt Q9NWZ3); type: functional
Interleukin-1 receptor-associated kinase 4, sequence (Q9NWZ3 whole entry): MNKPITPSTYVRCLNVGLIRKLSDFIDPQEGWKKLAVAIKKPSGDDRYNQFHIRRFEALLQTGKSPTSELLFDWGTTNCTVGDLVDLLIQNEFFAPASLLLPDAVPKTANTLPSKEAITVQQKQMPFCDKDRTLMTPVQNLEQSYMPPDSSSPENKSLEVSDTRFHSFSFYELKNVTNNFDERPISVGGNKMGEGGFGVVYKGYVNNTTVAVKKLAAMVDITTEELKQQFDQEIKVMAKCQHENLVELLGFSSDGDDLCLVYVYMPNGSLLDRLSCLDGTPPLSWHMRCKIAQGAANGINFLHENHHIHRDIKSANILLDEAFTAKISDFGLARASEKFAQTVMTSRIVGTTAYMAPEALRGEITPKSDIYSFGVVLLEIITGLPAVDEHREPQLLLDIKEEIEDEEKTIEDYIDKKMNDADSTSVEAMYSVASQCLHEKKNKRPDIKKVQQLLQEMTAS

[25] = biological target: Homeodomain-interacting protein kinase 2 (Homo sapiens, UniProt Q9H2X6); type: functional;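 note: measured within a kinome-wide kinase profiling panel, HIPK2 being one panel member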
[26] = biological target: T2, Apoptotic protease-activating factor 1 (Homo sapiens, UniProt O14727); test: SAR analysis of small molecule Activators of Apaf-1 in a Fluorescent assay.; type: functional; conditions: read-out: EC50_Mean;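 note: caspase-3 cleavage of fluorogenic Rh110 DEVD substrate downstream of apoptosome activation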
T2 sequence (O14727 whole entry): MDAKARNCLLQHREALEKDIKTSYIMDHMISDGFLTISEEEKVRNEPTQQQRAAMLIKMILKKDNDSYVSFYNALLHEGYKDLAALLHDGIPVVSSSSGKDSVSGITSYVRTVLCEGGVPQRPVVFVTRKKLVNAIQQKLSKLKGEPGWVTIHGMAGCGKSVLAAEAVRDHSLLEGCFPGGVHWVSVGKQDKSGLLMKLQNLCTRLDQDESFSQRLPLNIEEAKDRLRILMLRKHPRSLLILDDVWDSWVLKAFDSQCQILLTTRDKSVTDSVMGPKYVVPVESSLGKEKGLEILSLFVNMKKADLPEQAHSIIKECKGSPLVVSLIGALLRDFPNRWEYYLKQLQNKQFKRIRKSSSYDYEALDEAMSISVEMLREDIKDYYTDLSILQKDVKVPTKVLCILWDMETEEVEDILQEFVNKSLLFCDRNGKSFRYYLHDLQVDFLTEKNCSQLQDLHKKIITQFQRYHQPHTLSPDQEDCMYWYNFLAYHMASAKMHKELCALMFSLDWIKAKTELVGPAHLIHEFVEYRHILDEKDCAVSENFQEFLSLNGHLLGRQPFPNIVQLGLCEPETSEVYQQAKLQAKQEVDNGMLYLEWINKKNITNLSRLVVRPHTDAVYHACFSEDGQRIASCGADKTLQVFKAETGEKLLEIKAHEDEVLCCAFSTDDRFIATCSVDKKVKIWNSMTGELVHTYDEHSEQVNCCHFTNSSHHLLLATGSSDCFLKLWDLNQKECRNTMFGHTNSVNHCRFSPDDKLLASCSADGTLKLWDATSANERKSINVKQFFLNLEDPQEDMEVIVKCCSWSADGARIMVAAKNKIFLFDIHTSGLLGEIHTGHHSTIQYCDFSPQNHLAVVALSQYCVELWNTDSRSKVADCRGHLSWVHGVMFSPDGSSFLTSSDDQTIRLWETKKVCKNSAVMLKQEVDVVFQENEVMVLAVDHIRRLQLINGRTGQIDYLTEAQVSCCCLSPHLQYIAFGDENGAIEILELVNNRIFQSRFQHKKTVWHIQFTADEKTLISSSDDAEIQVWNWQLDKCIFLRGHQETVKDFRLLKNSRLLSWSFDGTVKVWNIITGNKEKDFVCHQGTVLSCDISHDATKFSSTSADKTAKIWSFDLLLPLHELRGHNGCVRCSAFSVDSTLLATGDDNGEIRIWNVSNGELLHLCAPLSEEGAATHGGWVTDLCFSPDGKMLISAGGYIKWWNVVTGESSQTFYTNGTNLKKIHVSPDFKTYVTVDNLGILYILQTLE

[27] = CAL PDZ domain peptide-binding inhibitors, dose response, biochemical, fluorescence polarization, untagged CAL PDZ, cherry-pick, set 2 (AID 602254); type: functional
[28] = biological target: Mitochondrial peptide methionine sulfoxide reductase (Bos taurus, UniProt P54149); type: functional;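 note: absorbance read-out, biochemical high-throughput dose-response screen for MsrA inhibitors, confirmatory; recombinant bovine MsrA coupled to E. coli TrxB with NADPH and selenocystamine; potency is for inhibitors of MsrA activity on DMSO substrate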
Mitochondrial peptide methionine sulfoxide reductase, sequence (P54149 whole entry): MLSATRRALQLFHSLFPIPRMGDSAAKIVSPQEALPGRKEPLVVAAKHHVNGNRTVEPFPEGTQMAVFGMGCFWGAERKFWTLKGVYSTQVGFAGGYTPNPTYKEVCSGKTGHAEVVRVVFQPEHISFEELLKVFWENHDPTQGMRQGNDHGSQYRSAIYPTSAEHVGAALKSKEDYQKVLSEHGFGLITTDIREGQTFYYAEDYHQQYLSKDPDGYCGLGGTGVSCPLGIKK

HEK293 = test: inhibitors of LMP1-driven NF-kB reporter, dose response, cell-based, HEK293, luciferase, cherry-pick (AID 588343); type: functional; conditions: Homo sapiens
Orexin receptor type 2 [29] = biological target: T3, Orexin receptor type 2 (Homo sapiens, UniProt O43614); test: Counterscreen assay for antagonists of the orexin 1 receptor (OX1R; HCRTR1): Fluorescence-based cell-based dose response assay for antagonists of the orexin 2 receptor (OX2R; HCRTR2), run by assay provider.; type: functional
T3 sequence (O43614 whole entry): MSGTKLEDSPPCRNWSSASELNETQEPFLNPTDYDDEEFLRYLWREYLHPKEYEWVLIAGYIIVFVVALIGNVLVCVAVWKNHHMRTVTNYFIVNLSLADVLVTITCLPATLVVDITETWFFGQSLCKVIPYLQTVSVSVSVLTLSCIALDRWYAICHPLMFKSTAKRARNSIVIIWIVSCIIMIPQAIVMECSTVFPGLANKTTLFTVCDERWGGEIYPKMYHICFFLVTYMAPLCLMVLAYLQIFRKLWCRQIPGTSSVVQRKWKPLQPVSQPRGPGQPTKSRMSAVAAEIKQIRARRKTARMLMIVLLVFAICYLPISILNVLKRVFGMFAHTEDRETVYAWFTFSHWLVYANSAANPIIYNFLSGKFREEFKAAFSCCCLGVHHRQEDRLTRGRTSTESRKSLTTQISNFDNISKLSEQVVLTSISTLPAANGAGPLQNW

Orexin receptor type 2 [30] = biological target: T3, Orexin receptor type 2; test: Counterscreen assay for antagonists of the orexin 1 receptor (OX1R; HCRTR1): Homogeneous Time Resolved Fluorescence (HTRF)-based cell-based dose response assay for antagonists of the orexin 2 receptor (OX2R; HCRTR2), run by assay provider.; type: functional
[31] = biological target: T4, Orexin/Hypocretin receptor type 1 (Homo sapiens, UniProt O43613); test: (§1) Fluorescence-based cell-based high throughput dose response assay for antagonists of the orexin 1 receptor (OX1R; HCRTR1). [Related pubchem assays (depositor defined):AID434989, AID435008, AID463079, AID485270, AID492963, AID492964, AID492965, AID493232, AID504717, AID504718]; type: functional
T4 sequence (O43613 whole entry): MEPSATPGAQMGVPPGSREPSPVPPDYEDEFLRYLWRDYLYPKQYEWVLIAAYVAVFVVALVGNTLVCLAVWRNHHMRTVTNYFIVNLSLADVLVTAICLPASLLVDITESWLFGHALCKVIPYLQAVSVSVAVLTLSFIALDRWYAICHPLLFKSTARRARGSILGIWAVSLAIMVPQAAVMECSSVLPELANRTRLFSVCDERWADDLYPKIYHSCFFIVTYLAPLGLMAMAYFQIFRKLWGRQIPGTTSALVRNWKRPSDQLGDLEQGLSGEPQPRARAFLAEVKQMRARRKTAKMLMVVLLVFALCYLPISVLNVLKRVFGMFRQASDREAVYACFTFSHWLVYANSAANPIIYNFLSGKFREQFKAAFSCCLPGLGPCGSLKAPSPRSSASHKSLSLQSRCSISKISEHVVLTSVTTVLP

CHO-K1 = test: (§2) Counterscreen for antagonists of the orexin 1 receptor (OX1R; HCRTR1): Homogeneous time resolved fluorescence (HTRF)-based cell-based dose response assay to identify antagonists of the parental CHO-K1 cell line. [Related pubchem assays (depositor defined):AID434989, AID435008, AID463079, AID485270, AID492963, AID492964, AID492965, AID493232, AID504699, AID504701]; type: functional; conditions: Cricetulus griseus
[32] = as §2, with “Fluorescence-based” for “Homogeneous time resolved fluorescence (HTRF)-based”, “cell-based high throughput” for “cell-based”, “CHO” for “CHO-K1”; type: functional
[33] = biological target: T4, Orexin/Hypocretin receptor type 1; test: as §1, with “Homogeneous Time Resolved Fluorescence (HTRF)-based” for “Fluorescence-based”; type: functional

Proto-oncogene tyrosine-protein kinase Src, sequence (P12931 2-536 limits assumed): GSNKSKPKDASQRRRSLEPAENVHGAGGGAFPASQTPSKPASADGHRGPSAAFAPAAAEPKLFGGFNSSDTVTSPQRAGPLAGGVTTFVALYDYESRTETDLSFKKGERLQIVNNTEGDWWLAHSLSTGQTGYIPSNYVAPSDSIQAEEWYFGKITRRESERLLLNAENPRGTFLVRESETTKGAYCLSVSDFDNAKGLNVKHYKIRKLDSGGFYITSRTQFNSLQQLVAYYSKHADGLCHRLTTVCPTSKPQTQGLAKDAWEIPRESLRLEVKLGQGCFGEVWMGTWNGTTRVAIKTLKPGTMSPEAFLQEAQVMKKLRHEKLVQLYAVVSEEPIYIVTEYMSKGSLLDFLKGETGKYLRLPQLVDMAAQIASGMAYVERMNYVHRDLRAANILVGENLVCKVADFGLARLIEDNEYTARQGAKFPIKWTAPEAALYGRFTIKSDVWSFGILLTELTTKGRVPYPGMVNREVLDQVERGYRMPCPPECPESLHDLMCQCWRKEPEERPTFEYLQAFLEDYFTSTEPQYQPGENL

Compound: Cn1cc(C=C2C(=O)Nc3cccnc32)c2ccccc21 [GW441756X]
- Ki [1]: 0.501 µM (active)
- Ki [2]: 0.501 µM (active)
- Ki [3]: > 7.94 µM (inactive)

Compound: NC(=O)c1cnccn1 [PYRAZINAMIDE]
- CC50 [4]: > 100 µM (active)

Compound: COCCCNCC1C(Oc2ccc(Cl)cc2)C(=O)N1c1ccccc1C (centres undefined)
- AC50 [5]: 28.2 µM (active)

Compound: CC1=CC(C)(C)Nc2ccc(OC(=O)CN3C(=O)CCC3=O)cc21
- EC50 [6]: 8.75 µM (active)
- AC50 [7]: 2.79 µM (active)
- EC50 (HT-1080): > 50 µM (not active)
- EC50 [8]: 5.71 µM (active)
- EC50 [9]: 0.79 µM (active)
- EC50 [10]: 8.84 µM (active)
- IC50 [11]: 54 µM (inactive)
- IC50 [12]: 48.4 µM (inactive)
- IC50 [13]: 9.33 µM (active)
- EC50 [14]: 8.86 µM (active)
- EC50 [15]: 2.93 µM (active)
- EC50 [16]: 7.45 µM (active)

Compound: CCOC(=O)C(C#N)c1c(Cl)c(Br)nn(Cc2cccc3ccccc23)c1=O (centres undefined)
- IC50 [17]: 1.45 µM (active)
- IC50 [18]: 3.33 µM (active)

Compound: Cc1n[nH]c2ccc(-c3cncc(OCCN(C)S(C)(=O)=O)c3)cc12
- Ki [19]: 5.01 µM (active)
- Ki [20]: 0.631 µM (active)
- Ki [21]: 0.126 µM (active)
- Ki [22]: 0.0126 µM (active)
- Ki [23]: 0.398 µM (active)
- Ki [24]: 3.16 µM (active)
- Ki [25]: > 3.16 µM (inactive)

Compound: CCOc1ccccc1NC(=O)CCS(=O)(=O)c1ccc2c(c1)CCN2C(C)=O
- EC50 [26]: > 100 µM (inactive)

Compound: O=C(CNC(=O)c1ccc2c(c1)OCCO2)N/N=C/c1ccc(Cl)cc1
- AC50 [27]: 101 µM (active)

Compound: COC(=O)CC/C(C)=N\Nc1ccc([N+](=O)[O-])cc1[N+](=O)[O-]
- IC50 [28]: 155 µM (inactive)

Compound: Nc1nc2ccccc2n1C(=O)c1ccccc1
- AC50 (HEK293): 5.38 µM (active)
- AC50 [5]: 108 µM (active)

Compound: Cc1c(/C=C/C(=O)c2cccs2)cnn1C
- IC50 (Orexin receptor type 2 [29]): > 88.8 µM (inactive)
- IC50 (Orexin receptor type 2 [30]): > 50 µM (inactive)
- IC50 [31]: > 49.8 µM (inactive)
- IC50 (CHO-K1): 35 µM (inactive)
- IC50 [32]: > 49.8 µM (inactive)
- IC50 [33]: 3.97 µM (active)

Compound: COc1ccc(Oc2c(Cl)cnn(Cc3cccc4ccccc34)c2=O)c(F)c1F
- IC50 [17]: 0.292 µM (active)
- IC50 [18]: 2.05 µM (active)
